Measurements published in ChEMBL document CHEMBL3046635, “Synthesis and Herbicidal Activity of New Pyrazole-4-carboxamide Derivatives” (J Pestic Sci, 2004).
The source made the active and inactive calls.

system: Echinochloa oryzicola; assay: Post-emergence herbicidal activity against Echinochloa oryzicola assessed as bleaching of stem/leaf parts; format: functional, organism-based; details: not given; further: test concentration or dose not given here

`Cn1cc(C(=O)Nc2ccc(C#N)cc2)c(OCc2cccc(C(F)(F)F)c2)n1` was tested. Which Activity did it give?
The Activity was “Active”.

Which Activity does the source give for `Cn1cc(C(=O)Nc2ccc(C(F)(F)F)cc2)c(OCc2cccc(C(F)(F)F)c2)n1` here?
Its Activity is “Active”.

system: Echinochloa oryzicola; assay: Pre-emergence herbicidal activity against Echinochloa oryzicola at 500 g a.i/ha measured after 14 days; format: functional, organism-based; details: not given

How did the Activity turn out when `Cn1cc(C(=O)Nc2ccc(C#N)cc2)c(OCc2cccc(C(F)(F)F)c2)n1` was run?
The Activity was “inactive”.

`Cn1cc(C(=O)Nc2ccc(C(F)(F)F)cc2)c(OCc2cccc(C(F)(F)F)c2)n1` was tested. Which Activity did it give?
Its Activity is “inactive”.

system: Pontederia vaginalis; assay: Pre-emergence herbicidal activity against Monochoria vaginalis assessed as bleaching of stem/leaf parts; format: functional, organism-based; details: not given

For `Cn1cc(C(=O)Nc2ccc(C#N)cc2)c(OCc2cccc(C(F)(F)F)c2)n1`, which Activity is on record?
Its Activity is “Active”.

`Cn1cc(C(=O)Nc2ccc(C(F)(F)F)cc2)c(OCc2cccc(C(F)(F)F)c2)n1` was tested. Which Activity did it give?
The Activity was “Active”.

system: Rotala indica; assay: Pre-emergence herbicidal activity against Rotala indica at 500 g a.i/ha measured after 14 days; format: functional, organism-based; details: not given

For `Cn1cc(C(=O)Nc2ccc(C#N)cc2)c(OCc2cccc(C(F)(F)F)c2)n1`, which Activity is on record?
The Activity was “Active”.

How did the Activity turn out when `Cn1cc(C(=O)Nc2ccc(C(F)(F)F)cc2)c(OCc2cccc(C(F)(F)F)c2)n1` was run?
Its Activity is “Active”.

system: Rotala indica; assay: Post-emergence herbicidal activity against Rotala indica assessed as bleaching of stem/leaf parts; format: functional, organism-based; details: not given; further: test concentration or dose not given here

With `Cn1cc(C(=O)Nc2ccc(C#N)cc2)c(OCc2cccc(C(F)(F)F)c2)n1` as the molecule, how does the Activity read?
Its Activity is “Active”.

For `Cn1cc(C(=O)Nc2ccc(C(F)(F)F)cc2)c(OCc2cccc(C(F)(F)F)c2)n1`, which Activity is on record?
The Activity was “Active”.

system: Eleocharis acicularis; assay: Pre-emergence herbicidal activity against Eleocharis acicularis at 500 g a.i/ha measured after 14 days; format: functional, organism-based; details: not given

Which Activity does the source give for `Cn1cc(C(=O)Nc2ccc(C#N)cc2)c(OCc2cccc(C(F)(F)F)c2)n1` here?
Its Activity is “inactive”.

`Cn1cc(C(=O)Nc2ccc(C(F)(F)F)cc2)c(OCc2cccc(C(F)(F)F)c2)n1` was tested. Which Activity did it give?
Its Activity is “Active”.

system: Cyperus difformis; assay: Pre-emergence herbicidal activity against Cyperus difformis at 500 g a.i/ha measured after 14 days; format: functional, organism-based; details: not given

Which Activity does the source give for `Cn1cc(C(=O)Nc2ccc(C#N)cc2)c(OCc2cccc(C(F)(F)F)c2)n1` here?
The Activity was “inactive”.

Which Activity does the source give for `Cn1cc(C(=O)Nc2ccc(C(F)(F)F)cc2)c(OCc2cccc(C(F)(F)F)c2)n1` here?
The Activity was “inactive”.

system: Cyperus difformis; assay: Pre-emergence herbicidal activity against Cyperus difformis assessed as bleaching of stem/leaf parts; format: functional, organism-based; details: not given

For `Cn1cc(C(=O)Nc2ccc(C#N)cc2)c(OCc2cccc(C(F)(F)F)c2)n1`, which Activity is on record?
The Activity was “Active”.

Which Activity does the source give for `Cn1cc(C(=O)Nc2ccc(C(F)(F)F)cc2)c(OCc2cccc(C(F)(F)F)c2)n1` here?
Its Activity is “Active”.

system: Schoenoplectiella juncoides; assay: Post-emergence herbicidal activity against Schoenoplectiella juncoides assessed as bleaching of stem/leaf parts; format: functional, organism-based; details: not given; further: test concentration or dose not given here

Which Activity does the source give for `Cn1cc(C(=O)Nc2ccc(C#N)cc2)c(OCc2cccc(C(F)(F)F)c2)n1` here?
Its Activity is “Active”.

Which Activity does the source give for `Cn1cc(C(=O)Nc2ccc(C(F)(F)F)cc2)c(OCc2cccc(C(F)(F)F)c2)n1` here?
Its Activity is “Active”.

system: Oryza sativa; assay: Phytotoxicity against Oryza sativa cv. Koshihikari (rice) at 500 g a.i/ha measured after 14 days; format: organism-based; details: in vivo, 336 h

`Cn1cc(C(=O)Nc2ccc(C#N)cc2)c(OCc2cccc(C(F)(F)F)c2)n1` was tested. Which Activity did it give?
Its Activity is “Non-toxic”.

For `Cn1cc(C(=O)Nc2ccc(C(F)(F)F)cc2)c(OCc2cccc(C(F)(F)F)c2)n1`, which Activity is on record?
Its Activity is “Non-toxic”.

system: Eleocharis acicularis; assay: Post-emergence herbicidal activity against Eleocharis acicularis assessed as bleaching of stem/leaf parts; format: functional, organism-based; details: not given; further: test concentration or dose not given here

With `Cn1cc(C(=O)Nc2ccc(C#N)cc2)c(OCc2cccc(C(F)(F)F)c2)n1` as the molecule, how does the Activity read?
Its Activity is “Active”.

Which Activity does the source give for `Cn1cc(C(=O)Nc2ccc(C(F)(F)F)cc2)c(OCc2cccc(C(F)(F)F)c2)n1` here?
The Activity was “Active”.

system: Elatine triandra; assay: Pre-emergence herbicidal activity against Elatine triandra assessed as bleaching of stem/leaf parts; format: functional, organism-based; details: not given

Which Activity does the source give for `Cn1cc(C(=O)Nc2ccc(C#N)cc2)c(OCc2cccc(C(F)(F)F)c2)n1` here?
The Activity was “Active”.

How did the Activity turn out when `Cn1cc(C(=O)Nc2ccc(C(F)(F)F)cc2)c(OCc2cccc(C(F)(F)F)c2)n1` was run?
Its Activity is “Active”.

system: Eleocharis acicularis; assay: Pre-emergence herbicidal activity against Eleocharis acicularis assessed as bleaching of stem/leaf parts; format: functional, organism-based; details: not given

With `Cn1cc(C(=O)Nc2ccc(C#N)cc2)c(OCc2cccc(C(F)(F)F)c2)n1` as the molecule, how does the Activity read?
Its Activity is “Active”.

For `Cn1cc(C(=O)Nc2ccc(C(F)(F)F)cc2)c(OCc2cccc(C(F)(F)F)c2)n1`, which Activity is on record?
Its Activity is “Active”.

system: Lindernia procumbens; assay: Post-emergence herbicidal activity against Lindernia procumbens assessed as bleaching of stem/leaf parts; format: functional, organism-based; details: not given; further: test concentration or dose not given here

With `Cn1cc(C(=O)Nc2ccc(C#N)cc2)c(OCc2cccc(C(F)(F)F)c2)n1` as the molecule, how does the Activity read?
The Activity was “Active”.

Which Activity does the source give for `Cn1cc(C(=O)Nc2ccc(C(F)(F)F)cc2)c(OCc2cccc(C(F)(F)F)c2)n1` here?
Its Activity is “Active”.

system: Elatine triandra; assay: Post-emergence herbicidal activity against Elatine triandra assessed as bleaching of stem/leaf parts; format: functional, organism-based; details: not given; further: test concentration or dose not given here

Which Activity does the source give for `Cn1cc(C(=O)Nc2ccc(C#N)cc2)c(OCc2cccc(C(F)(F)F)c2)n1` here?
The Activity was “Active”.

`Cn1cc(C(=O)Nc2ccc(C(F)(F)F)cc2)c(OCc2cccc(C(F)(F)F)c2)n1` was tested. Which Activity did it give?
The Activity was “Active”.

system: Ammannia multiflora; assay: Post-emergence herbicidal activity against Ammannia multiflora assessed as bleaching of stem/leaf parts; format: functional, organism-based; details: not given; further: test concentration or dose not given here

For `Cn1cc(C(=O)Nc2ccc(C#N)cc2)c(OCc2cccc(C(F)(F)F)c2)n1`, which Activity is on record?
Its Activity is “Active”.

For `Cn1cc(C(=O)Nc2ccc(C(F)(F)F)cc2)c(OCc2cccc(C(F)(F)F)c2)n1`, which Activity is on record?
Its Activity is “Active”.

system: Schoenoplectiella juncoides; assay: Pre-emergence herbicidal activity against Schoenoplectiella juncoides at 500 g a.i/ha measured after 14 days; format: functional, organism-based; details: not given

For `Cn1cc(C(=O)Nc2ccc(C#N)cc2)c(OCc2cccc(C(F)(F)F)c2)n1`, which Activity is on record?
The Activity was “inactive”.

With `Cn1cc(C(=O)Nc2ccc(C(F)(F)F)cc2)c(OCc2cccc(C(F)(F)F)c2)n1` as the molecule, how does the Activity read?
The Activity was “inactive”.

system: Lindernia procumbens; assay: Pre-emergence herbicidal activity against Lindernia procumbens assessed as bleaching of stem/leaf parts; format: functional, organism-based; details: not given

Which Activity does the source give for `Cn1cc(C(=O)Nc2ccc(C#N)cc2)c(OCc2cccc(C(F)(F)F)c2)n1` here?
Its Activity is “Active”.

With `Cn1cc(C(=O)Nc2ccc(C(F)(F)F)cc2)c(OCc2cccc(C(F)(F)F)c2)n1` as the molecule, how does the Activity read?
Its Activity is “Active”.

system: Pontederia vaginalis; assay: Post-emergence herbicidal activity against Monochoria vaginalis assessed as bleaching of stem/leaf parts; format: functional, organism-based; details: not given; further: test concentration or dose not given here

With `Cn1cc(C(=O)Nc2ccc(C#N)cc2)c(OCc2cccc(C(F)(F)F)c2)n1` as the molecule, how does the Activity read?
The Activity was “Active”.

For `Cn1cc(C(=O)Nc2ccc(C(F)(F)F)cc2)c(OCc2cccc(C(F)(F)F)c2)n1`, which Activity is on record?
The Activity was “Active”.

system: Rotala indica; assay: Pre-emergence herbicidal activity against Rotala indica assessed as bleaching of stem/leaf parts; format: functional, organism-based; details: not given

For `Cn1cc(C(=O)Nc2ccc(C#N)cc2)c(OCc2cccc(C(F)(F)F)c2)n1`, which Activity is on record?
The Activity was “Active”.

`Cn1cc(C(=O)Nc2ccc(C(F)(F)F)cc2)c(OCc2cccc(C(F)(F)F)c2)n1` was tested. Which Activity did it give?
Its Activity is “Active”.

system: Elatine triandra; assay: Pre-emergence herbicidal activity against Elatine triandra at 500 g a.i/ha measured after 14 days; format: functional, organism-based; details: not given

How did the Activity turn out when `Cn1cc(C(=O)Nc2ccc(C#N)cc2)c(OCc2cccc(C(F)(F)F)c2)n1` was run?
The Activity was “Active”.

How did the Activity turn out when `Cn1cc(C(=O)Nc2ccc(C(F)(F)F)cc2)c(OCc2cccc(C(F)(F)F)c2)n1` was run?
Its Activity is “Active”.

system: Pontederia vaginalis; assay: Pre-emergence herbicidal activity against Monochoria vaginalis at 500 g a.i/ha measured after 14 days; format: functional, organism-based; details: not given

For `Cn1cc(C(=O)Nc2ccc(C#N)cc2)c(OCc2cccc(C(F)(F)F)c2)n1`, which Activity is on record?
The Activity was “inactive”.

Which Activity does the source give for `Cn1cc(C(=O)Nc2ccc(C(F)(F)F)cc2)c(OCc2cccc(C(F)(F)F)c2)n1` here?
The Activity was “Active”.

system: Echinochloa oryzicola; assay: Pre-emergence herbicidal activity against Echinochloa oryzicola assessed as bleaching of stem/leaf parts; format: functional, organism-based; details: not given

For `Cn1cc(C(=O)Nc2ccc(C#N)cc2)c(OCc2cccc(C(F)(F)F)c2)n1`, which Activity is on record?
The Activity was “Active”.

Which Activity does the source give for `Cn1cc(C(=O)Nc2ccc(C(F)(F)F)cc2)c(OCc2cccc(C(F)(F)F)c2)n1` here?
The Activity was “Active”.

system: Ammannia multiflora; assay: Pre-emergence herbicidal activity against Ammannia multiflora at 500 g a.i/ha measured after 14 days; format: functional, organism-based; details: not given

How did the Activity turn out when `Cn1cc(C(=O)Nc2ccc(C#N)cc2)c(OCc2cccc(C(F)(F)F)c2)n1` was run?
The Activity was “Active”.

Which Activity does the source give for `Cn1cc(C(=O)Nc2ccc(C(F)(F)F)cc2)c(OCc2cccc(C(F)(F)F)c2)n1` here?
The Activity was “Active”.

system: Ammannia multiflora; assay: Pre-emergence herbicidal activity against Ammannia multiflora assessed as bleaching of stem/leaf parts; format: functional, organism-based; details: not given

With `Cn1cc(C(=O)Nc2ccc(C#N)cc2)c(OCc2cccc(C(F)(F)F)c2)n1` as the molecule, how does the Activity read?
The Activity was “Active”.

With `Cn1cc(C(=O)Nc2ccc(C(F)(F)F)cc2)c(OCc2cccc(C(F)(F)F)c2)n1` as the molecule, how does the Activity read?
Its Activity is “Active”.

system: Lindernia procumbens; assay: Pre-emergence herbicidal activity against Lindernia procumbens at 500 g a.i/ha measured after 14 days; format: functional, organism-based; details: not given

With `Cn1cc(C(=O)Nc2ccc(C#N)cc2)c(OCc2cccc(C(F)(F)F)c2)n1` as the molecule, how does the Activity read?
Its Activity is “Active”.

How did the Activity turn out when `Cn1cc(C(=O)Nc2ccc(C(F)(F)F)cc2)c(OCc2cccc(C(F)(F)F)c2)n1` was run?
Its Activity is “Active”.

system: Schoenoplectiella juncoides; assay: Pre-emergence herbicidal activity against Schoenoplectiella juncoides assessed as bleaching of stem/leaf parts; format: functional, organism-based; details: not given

For `Cn1cc(C(=O)Nc2ccc(C#N)cc2)c(OCc2cccc(C(F)(F)F)c2)n1`, which Activity is on record?
The Activity was “Active”.

Which Activity does the source give for `Cn1cc(C(=O)Nc2ccc(C(F)(F)F)cc2)c(OCc2cccc(C(F)(F)F)c2)n1` here?
Its Activity is “Active”.

system: Cyperus difformis; assay: Post-emergence herbicidal activity against Cyperus difformis assessed as bleaching of stem/leaf parts; format: functional, organism-based; details: not given; further: test concentration or dose not given here

`Cn1cc(C(=O)Nc2ccc(C#N)cc2)c(OCc2cccc(C(F)(F)F)c2)n1` was tested. Which Activity did it give?
Its Activity is “Active”.

For `Cn1cc(C(=O)Nc2ccc(C(F)(F)F)cc2)c(OCc2cccc(C(F)(F)F)c2)n1`, which Activity is on record?
Its Activity is “Active”.
